Results from ChEMBL document CHEMBL2424570, “New synthetic approach to coumarino[4,3-b]pyridine systems and potential cytotoxic evaluation” (Med Chem Res, 2013).

Legend:
Ehrlich [1] = test: Ratio of 5-fluorouracil IC50 to compound IC50 for mouse EAC cells; assay type: functional
[2] = Antitumor activity against mouse EAC cells by trypan blue exclusion assay; assay type: functional, cell-based, Ehrlich; details: for IC25 / IC50: Mus musculus, Ehrlich
Ehrlich [3] = test: Ratio of 5-fluorouracil IC25 to compound IC25 for mouse EAC cells; assay type: functional
Ehrlich [4] = test: Ratio of 5-fluorouracil IC100 to compound IC100 for mouse EAC cells; assay type: functional

Structure (SMILES) | Ratio IC50 (Ehrlich [1]) | IC100 [2] [µM] | IC25 [2] [nM] | IC50 [2] [nM] | Ratio (Ehrlich [3]) | Ratio (Ehrlich [4])
O=c1oc2ccccc2c2nc(/C=C/c3ccccc3)cc(-c3ccccc3)c12 | 3 | 0.27 | 60 | 130 | 3 | 3
Nc1c(C(c2ccc(Cl)cc2)c2c(N)c3ccccc3oc2=O)c(=O)oc2ccccc12 | 3 | 0.25 | 60 | 120 | 3 | 3
O=c1oc2ccccc2c2nc3c(c(-c4ccccc4)c12)CCC/C3=C\c1ccccc1 | 3 | 0.24 | 60 | 120 | 3 | 3
O=C1c2ccccc2-c2nc3c(c(-c4ccccc4)c21)c(=O)oc1ccccc13 | 3 | 0.27 | 60 | 130 | 3 | 3
O=c1oc2ccccc2c2nc(-c3ccccc3)cc(-c3ccc([N+](=O)[O-])cc3)c12 | 3 | 0.25 | 60 | 120 | 3 | 3
O=c1[nH]cc(F)c(=O)[nH]1 [FLUOROURACIL] | – | 0.77 | 190 | 380 | – | –
